Measured values as given in ChEMBL document CHEMBL1201862, “PubChem BioAssay data set” (2004).
Activity calls are given as the source filed them.

What was measured:
[1] = biological target: T1, Mannose-6-phosphate isomerase (Homo sapiens, UniProt P34949); experiment: human PMI inhibitors, high substrate, primary screen, biochemical, fluorescence intensity, high mannose 6-phosphate (AID 1220)
T1 sequence (P34949 whole entry): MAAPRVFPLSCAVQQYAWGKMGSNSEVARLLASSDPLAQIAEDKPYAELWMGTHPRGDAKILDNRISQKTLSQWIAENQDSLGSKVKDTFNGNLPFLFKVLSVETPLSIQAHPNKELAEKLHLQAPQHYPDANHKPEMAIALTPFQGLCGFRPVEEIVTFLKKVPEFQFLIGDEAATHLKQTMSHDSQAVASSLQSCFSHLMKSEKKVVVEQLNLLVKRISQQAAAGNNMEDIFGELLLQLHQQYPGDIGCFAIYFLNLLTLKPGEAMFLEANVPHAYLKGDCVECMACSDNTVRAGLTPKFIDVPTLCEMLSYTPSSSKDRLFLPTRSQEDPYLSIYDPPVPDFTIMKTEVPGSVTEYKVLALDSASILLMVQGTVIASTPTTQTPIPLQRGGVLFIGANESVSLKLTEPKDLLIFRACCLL

[2] = biological target: Paired box protein Pax-8 (Homo sapiens, UniProt Q06710); experiment: inhibitors of PAX8-driven TPO luciferase reporter, dose response, RMG-I cells, cherry-pick (AID 687027); format: functional, cell-based;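 further: luciferase reporter driven by Pax8 target thyroperoxidase promoter measured by SteadyGlo luminescence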
[3] = cytotoxicity in OVCAR8 ovarian cancer cells, dose response, PAX8 project, cell-based, plate reader, dry powder samples (AID 743197); format: functional; conditions: OVCAR-8
[4] = A2780 ovarian cancer cell cytotoxicity, dose response, cytotoxicity control, plate reader, dry powder samples (AID 743046); format: functional, cell-based
[5] = cells
[6] = biological target: Major prion protein (Homo sapiens, UniProt P04156); format: functional, cell-based
[7] = P. falciparum Dd2 growth inhibitors, dose response, SYBR Green, cherry-picked samples (AID 1159567); format: functional, cell-based
[8] = HepG2 cell cytotoxicity, dose response, cytotoxicity control, cherry-picked samples (AID 1159577); format: functional, cell-based
[9] = Artemis endonuclease inhibitor potency, dose response, biochemical, fluorescence intensity (AID 720701); format: functional;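 further: Artemis endonuclease enzyme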
[10] = ZM109 Env clade C HIV-1 fusion inhibitors, dose response, HeLa effector, CEM target cells, luciferase, cherry-pick (AID 652058); format: functional, cell-based
[11] = off-target signal loss in HeLa-CEM21 co-culture – HeLa F-luc CTL cells, cherry-picked, counter-screen for HIV-1 Env fusion inhibitor project, dose response (AID 652040); format: functional, cell-based;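 further: potency for signal decrease marking cytotoxic or nonspecific inhibition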
[12] = CEM21 lymphoblast cell cytotoxicity, dose response, cytotoxicity control for viral fusion inhibitor project, CellTiter-Glo luminescence, cherry-picked (AID 652042); format: functional, cell-based;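 further: potency for signal decrease meaning cytotoxicity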
[13] = inhibitors of HIV Env-driven cell fusion, dose response, cherry-pick (AID 652057); format: functional, cell-based
[14] = inhibitors of clade B AD8 Env fusion, dose response, cell-based, cherry-pick (AID 652062); format: functional;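 further: luciferase signal from cell-cell fusion driven by HIV-1 clade B AD8 Env; potency is for inhibitors of fusion seen as a drop in luminescence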

Oc1nc2cc3c(cc2cc1CN(Cc1cccnc1)C(S)=NCc1ccco1)OCCO3
IC50 [1]: > 50 µM (not active)

C[C@H](CO)N1C[C@H](C)[C@@H](CN(C)Cc2ccc(Cl)c(Cl)c2)OCCCC[C@H](C)Oc2ccc(NS(=O)(=O)c3ccc(F)cc3)cc2C1=O
AC50 [2]: 15.6 µM (active)
AC50 [3]: > 70 µM (inactive)
AC50 [4]: 49.6 µM (active)

Cn1nc(C(F)(F)F)c(/C=N/OC(=O)c2ccccc2Cl)c1SCc1ccccc1Cl
IC50 [5]: > 138 µM (inactive)
IC50 [6]: 4.68 µM (active)

O=C(C1=C(O)C(=O)N(CCN2CCOCC2)C1c1cccc(Br)c1)c1cc2ccccc2o1 (stereo unspecified)
IC50 [5]: > 138 µM (inactive)
IC50 [6]: 3.22 µM (active)

CCCNC(=O)N1CC2(CCN(Cc3cccc(OC)c3)CC2)c2c(n(C)c3cc(OC)ccc23)[C@@H]1CO
AC50 [7]: 4.94 µM (active)
AC50 [8]: 21.1 µM (active)

C[C@@H]1CN([C@@H](C)CO)C(=O)c2cc(NC(=O)Nc3ccc(C(F)(F)F)cc3)ccc2O[C@@H](C)CCCCO[C@H]1CN(C)C(=O)c1ccccc1
AC50 [2]: 5.18 µM (active)
AC50 [3]: > 70 µM (inactive)
AC50 [4]: 54.3 µM (active)

COc1ccccc1NC(=O)N1CCCCN2[C@H](CO)[C@H](c3ccc(C#Cc4ccccc4)cc3)[C@H]2C1
AC50 [7]: 1.03 µM (active)
AC50 [8]: 8.11 µM (active)

CCOc1cccc(C(=O)NC(=S)Nc2ccc(N3CCCC3)cc2)c1
IC50 [9]: > 20 µM (inactive)

Cc1ccc(NC(=O)c2ccc(-c3nn(C)c(=O)c4ccccc34)cc2)cc1
AC50 [10]: 3.31 µM (active)
AC50 [11]: 16.8 µM (active)
AC50 [12]: 57.8 µM (active)
AC50 [13]: 24.9 µM (active)
AC50 [14]: 6.49 µM (active)
